Entries after “also recorded” stand apart in the source; their conditions may differ. Like-named read-outs stand apart in the source and are kept apart here.
Experiments:
[1] = tested on: Sprague-Dawley rats exposed to bright continuous light; assay: Light damage (photo-oxidative damage) model of dry AMD, corticosteroid treatment vs vehicle; assay type: in vivo; conditions: after photo-oxidative damage; FA compared with TA; listed as FA
Method: All experiments conducted were in accordance with the ARVO Statement for the Use of Animals in Ophthalmic and Vision Research. Albino Sprague-Dawley (SD) rats aged from […] were exposed to bright continuous light (BCL) at 1000 lux. The rats were born and reared in dim cyclic light conditions (12 h light:12 h dark) with an ambient light level of approximately 5 lux. Exposure to BCL was conducted on animals aged between post-natal days (P) 90-150. Prior to BCL exposure, rats were dark adapted for a minimum of 15 h then transferred to individual cages designed to allow light to enter unimpeded. There were no areas of shadow in the cages; pupillary dilation was not performed. BCL exposure commenced consistently at 9:00 am, and was achieved using a cold-white fluorescent light source positioned above the cages (18 W, Cool White; TFC), at an intensity of approximately 1000 lux at the cage floor. BCL exposure was maintained over a period of 24 h, after which time the animals were immediately returned to dim cyclic conditions for the post-exposure period.
Age-matched, dim-reared animals served as control samples.
Animals were euthanatized by overdose of barbiturate administered by an intraperitoneal injection (60 mg/kg bodyweight; Valabarb; Virbac Animal Health, Regents Park, NSW, Australia).
Eyes were oriented and embedded in O.C.T. compound (Tissue-Tek, Sakura, Japan) then snap frozen in liquid nitrogen and cryosectioned at […] Retinas for RNA extraction were immediately deposited in RNA stabilizer (RNAlater; Ambion, Austin, Tex.), prechilled on ice, and stored according to the manufacturer's instructions. RNA was then extracted from each sample. The samples were incubated at 4° C. overnight to allow adequate penetration of the preservative, and then stored at […] until required. The samples were processed in batches encompassing the entire time course, to ensure comparability. […]
TUNEL labeling was used to quantify photoreceptor apoptosis in cryosections, during and after BCL, with a protocol published previously. […]

[2] = tested on: monkey choroidal endothelial cells (CECs); conditions: PMA-stimulated CECs; FA compared with TA; cited from earlier work
[3] = tested on: New Zealand albino rabbits; assay: Intravitreal toxicology of fludrocortisone acetate in rabbit eyes; assay type: in vivo; conditions: based on vitreous volume, man 4 mL vs rabbit 1.5 mL
Description: The eyes were enucleated and examined with light microscopy.
Investigative Ophthalmology & Visual Science, 2006. 47(13): p. 4281-4281 ]. […] Their eyes were enucleated and examined with light microscopy.

[4] = target: T1, mineralocorticoid receptor (Homo sapiens, UniProt P08235); conditions: Table 1; hydrocortisone (cortisol) = 1; cited from earlier work
T1 sequence (P08235 1-984): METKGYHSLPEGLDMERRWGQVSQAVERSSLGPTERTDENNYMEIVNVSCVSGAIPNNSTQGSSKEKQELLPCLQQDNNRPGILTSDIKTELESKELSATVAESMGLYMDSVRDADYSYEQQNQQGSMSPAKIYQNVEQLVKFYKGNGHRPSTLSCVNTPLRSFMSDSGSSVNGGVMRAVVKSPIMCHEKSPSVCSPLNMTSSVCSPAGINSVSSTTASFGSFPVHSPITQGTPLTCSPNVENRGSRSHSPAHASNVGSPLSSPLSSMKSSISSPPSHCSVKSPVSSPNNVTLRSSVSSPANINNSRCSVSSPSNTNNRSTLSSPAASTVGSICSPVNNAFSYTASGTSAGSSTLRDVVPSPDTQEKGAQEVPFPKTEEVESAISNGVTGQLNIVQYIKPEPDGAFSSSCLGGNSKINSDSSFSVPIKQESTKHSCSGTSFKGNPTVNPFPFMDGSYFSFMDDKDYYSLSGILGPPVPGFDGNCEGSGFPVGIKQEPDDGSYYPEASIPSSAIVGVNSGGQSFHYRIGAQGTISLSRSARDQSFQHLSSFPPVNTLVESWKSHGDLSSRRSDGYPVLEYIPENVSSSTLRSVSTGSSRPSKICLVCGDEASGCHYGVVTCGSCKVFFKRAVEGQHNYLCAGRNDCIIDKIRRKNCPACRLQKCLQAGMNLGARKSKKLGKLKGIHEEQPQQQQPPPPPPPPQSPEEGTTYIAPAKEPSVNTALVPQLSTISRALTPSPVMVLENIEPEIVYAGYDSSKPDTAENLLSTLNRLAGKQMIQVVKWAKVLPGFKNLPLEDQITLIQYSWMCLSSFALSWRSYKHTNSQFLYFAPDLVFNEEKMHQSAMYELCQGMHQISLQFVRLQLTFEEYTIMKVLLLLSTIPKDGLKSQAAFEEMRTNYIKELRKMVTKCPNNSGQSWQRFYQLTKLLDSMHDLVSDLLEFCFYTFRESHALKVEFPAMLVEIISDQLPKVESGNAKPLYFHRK

[5] = tested on: New Zealand albino rabbits; conditions: cited from earlier work; for ERG change in the other groups: intravitreal 2 mg, 1 mg, 400 μg/0.1 ml; for ERG change in the other groups / ERG change: two weeks after injection; for intravitreal (vitreous) haemorrhage: intravitreal 4 mg/0.1 mL; for ERG change: intravitreal 4 mg/0.1 ml

With `CC(=O)OCC(=O)[C@@]1(O)CC[C@H]2[C@@H]3CCC4=CC(=O)CC[C@]4(C)[C@@]3(F)[C@@H](O)C[C@@]21C` [Fludrocortisone acetate, 9-α-Fiuoro-11 β. 17 α, 21-trihydroxy-4-pregnene-3, 20 dione acetate] the “prevention of macrophage recruitment (IBA1)” value [1] was “more effective than TA; also recorded: superior”, the “prevention of photoreceptor death / cell death (TUNEL)” value [1] was “more effective than TA; also recorded: superior” and the “retinal function (ERG, a- and b-wave amplitude)” value [1] was “preserves retinal function; also recorded: superior”. For the same compound, the restoring quiescent morphology [2] was “superior to TA”, the human equivalent dose [3] was 67 mg/eye every 4 weeks and the MR potency [4] was 200. The “histological examination of retinal sections (light microscopy)” value ([5]; 400 μg to 4 mg per eye) was “no evidence of toxicity or vacuolization except for one eye in the 4mg group”, the “time by which all aggregates disappeared from the vitreous” value ([5]; 2-mg group) was 22 ± 8 days and the “time by which all aggregates disappeared from the vitreous” value ([5]; 4-mg group) was 33 ± 7 days. For the same compound, the IOP ([5]; all groups) was “normal”, the “ERG change in the other groups” value [5] was “normal ERG” and the “ERG change in the other groups” value ([5]; listed as FA) was “no other problems of reductions in ERG”. For the same compound, the “intravitreal (vitreous) haemorrhage” value [5] was 1, the “intravitreal (vitreous) haemorrhage” value ([5]; listed as FA) was “Two eyes at 4 mg/0.1 ml experienced intravitreal haemorrhage” and the ERG change [5] was “one eye injected with 4 mg/0.1 ml exhibited decreases in ERG output”. For the same compound, the ERG change ([5]; listed as FA) was “reduced ERG”, the “signs of retinal toxicity on slit-lamp examination, indirect ophthalmoscopy, or light microscopy” value ([5]; rabbit, in vivo) was “no signs of retinal toxicity” and the “tolerability in animal toxicology studies” value ([5]; rabbit, in vivo) was “well-tolerated”. The “inflammation in anterior or posterior segment (slit lamp biomicroscopy, indirect ophthalmoscopy)” value ([5]; up to 40 days of observations, all treatment groups) was “did not show any evidence of significant inflammation”.

— patent US20210069213A1, “COMPOSITION AND METHOD OF TREATMENT FOR DRY A.M.D. (AGE RELATED MACULAR DEGENERATION)” (EYE CO PTY LTD, priority 2018, published 2021)
